Columns and labels:
[1] = tested on: HSV 2 (3rd passage of a clinical isolate); assay: Plaque method: tissue culture of HSV 2 in vero cells; assay type: cell-based; details: Ara T esters at 3.9 μmol/l, FIG. 2
[2] = tested on: HSV 2 strain relatively resistent to ACV; assay: Plaque method with a HSV 2 strain relatively resistent to ACV; assay type: cell-based; details: 0.9 μmol/l versus 2.2 μmol/l, FIG. 1B
Description: A virus preparation of HSV 2 (3rd passage of a clinical isolate) is diluted to 3×10^3 pfu/well, and thereafter inocculated on cells and incubated for 1 hour in a tissue culture of vero cells. At that time the virus is incorporated into the cells.
These cells are then cultivated for 24 hours with an anti-viral agent. Thereafter they are placed under freezing conditions, which lead to the disruption of the cells and free virus appear under the melting process. Dilutions of either 1/100 or 1/10000 are prepared and added to fresh tissue cultures. Incubation for 1 hour leads to incorporation of virus in the cells. Carboxymethylcellulose (CMC) is added in order to prohibit the migration of virus between the cells through the medium. Spread of virus by cell contact is still effective in causing the formation of plaques.
One plaque will represent one infectious virus. Thus the counting of plaques gives a precise quantitation of the number of infectious virus.
In a test done with a HSV 2 strain relatively resistent to ACV, the test compounds, ACV, ACV-oleate and ACV-elaidate, were added at 0.9 μmol/l or 2.2 μmol/l.

Herpes virus 2 = assay: In vivo reduced mortality, Herpes Simplex Virus 2 infected mice; set-up: species or system female NMRI mice
Text: The in vivo experiments were done using 3-4 weeks old female NMRI mice. This strain of mice is sensitive to the human herpes virus, up to an age of about 6 weeks, where after they become relatively resistant. Mice below this critical age were used, having a weight of 13-17 grams.
Herpes virus 2 which were third passage isolates were inocculated on the left ear lobe by a standarized procedure. […] Thus HSV 2 is especially suitable as a system for evaluation of the therapeutic efficiency by counting the number of cases of encephalitis.
The animals received approximately 12 mg/kg body weight/day through the drinking water. The compounds were added to the drinking water formulated as micelles with deoxycholate.
Both the control group and the groups receiving the test compounds included 10 animals in each group. The test compounds were ACV-elaidate and ACV in comparison with the control. Treatment was started on day 3 from inocculation. At that time the infection is well established in the central nerve system.

SMILES	inhibition [1] [%]	inhibitory effect at increasing concentration [2]	survival rate (Herpes virus 2; approximately 12 mg/kg body weight/day through the drinking water, treatment started day 3 from inocculation, FIG. 3) [%]	signs of encephalitis (Herpes virus 2; surviving animals after 21 days)
CCCCCCCC/C=C\CCCCCCCC(=O)OC[C@H]1O[C@@H](n2cc(C)c(=O)[nH]c2=O)[C@@H](O)[C@@H]1O (relative stereo) [Ara T oleate, 5′-O-(cis-9″-Octadecenoyl)-1-β-D-Arabinofuranosyl-Thymine]	100	–	–	–
Nc1nc2c(ncn2COCCO)c(=O)[nH]1 [ACV, 9-(2-Hydroxyethoxymethyl)-Guanine, reference compound]	–	remains at the same level	–	–
CCCCCCCC/C=C/CCCCCCCC(=O)OCCOCn1cnc2c(=O)[nH]c(N)nc21 [ACV-elaidate, 9-(2′-(trans-9″-Octadecenoyloxy)ethoxymethyl)-Guanine]	–	strongly enhanced at the higher concentration	40	no signs of encephalitis
CCCCCCCC/C=C\CCCCCCCC(=O)OCCOCn1cnc2c(=O)[nH]c(N)nc21 [ACV-oleate, 9-(2′-(cis-9′-Octadecenoylcxy)ethoxymethyl)-Guanine]	–	strongly enhanced at the higher concentration	–	–
